Values of other authors as cited in PMC12181400, “Leveraging viral genome sequences and machine learning models for identification of potentially selective antiviral agents” (Communications Chemistry, 2025).

Test system: hepatitis B surface antigen (HBsAg) secretion
Set-up: method as in PMID 17723297
Settings: Hep G2.2.15 cell line; read-out: IC50, inhibition of HBsAg secretion; cited from earlier work

## COc1cc2c3c(c1O)C1(C=CC(=O)C=C1)CC3N(C)CC2 (stereo not shown) [glaziovine]
  IC50: 8 µM
